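Grown in 96-well plates, cells were treated for 48 hours with each compound at five concentrations. Insufficient inhibition: endpoint recorded as highest concentration tested. TGI: total growth inhibition.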
Legend:
Assay in all cases: NCI anticancer screen, dose series, 48 h
OVCAR-3 ovarian = tested on: OVCAR-3 ovarian
SW-620 colon = tested on: SW-620 colon
CAKI-1 renal = tested on: CAKI-1 renal
MDA-MB-231 breast = tested on: MDA-MB-231 breast
A498 renal = tested on: A498 renal
HOP-92 NSCLC = tested on: HOP-92 NSCLC
RPMI-8226 leukemia = tested on: RPMI-8226 leukemia
NCI/ADR-RES ovarian = tested on: NCI/ADR-RES ovarian
OVCAR-5 ovarian = tested on: OVCAR-5 ovarian
SNB-19 CNS = tested on: SNB-19 CNS
OVCAR-8 ovarian = tested on: OVCAR-8 ovarian
UACC-257 melanoma = tested on: UACC-257 melanoma
LOX IMVI melanoma = tested on: LOX IMVI melanoma
T-47D breast = tested on: T-47D breast
786-0 renal = tested on: 786-0 renal
RXF 393 renal = tested on: RXF 393 renal
HCT-15 colon = tested on: HCT-15 colon
DU-145 prostate = tested on: DU-145 prostate
ACHN renal = tested on: ACHN renal
SK-MEL-5 melanoma = tested on: SK-MEL-5 melanoma
A549 NSCLC = tested on: A549 NSCLC
HCT-116 colon = tested on: HCT-116 colon
SF-295 CNS = tested on: SF-295 CNS
SR leukemia = tested on: SR leukemia
SK-OV-3 ovarian = tested on: SK-OV-3 ovarian
SF-539 CNS = tested on: SF-539 CNS
IGROV1 ovarian = tested on: IGROV1 ovarian
HOP-62 NSCLC = tested on: HOP-62 NSCLC
MOLT-4 leukemia = tested on: MOLT-4 leukemia
U251 CNS = tested on: U251 CNS
NCI-H23 lung = tested on: NCI-H23 lung
CCRF-CEM leukemia = tested on: CCRF-CEM leukemia
MDA-MB-435 = tested on: MDA-MB-435
MCF7 breast = tested on: MCF7 breast
HL-60(TB) leukemia = tested on: HL-60(TB) leukemia
HCC-2998 colon = tested on: HCC-2998 colon
MALME-3M melanoma = tested on: MALME-3M melanoma
M14 melanoma = tested on: M14 melanoma
SF-268 CNS = tested on: SF-268 CNS
TK-10 renal = tested on: TK-10 renal
K-562 leukemia = tested on: K-562 leukemia
EKVX NSCLC = tested on: EKVX NSCLC
HT29 colon = tested on: HT29 colon
PC-3 prostate = tested on: PC-3 prostate
HS 578T breast = tested on: HS 578T breast
UO-31 renal = tested on: UO-31 renal
SK-MEL-28 melanoma = tested on: SK-MEL-28 melanoma
NCI-H460 lung = tested on: NCI-H460 lung
OVCAR-4 ovarian = tested on: OVCAR-4 ovarian
MDA-N = tested on: MDA-N
SK-MEL-2 melanoma = tested on: SK-MEL-2 melanoma
NCI-H522 lung = tested on: NCI-H522 lung
SNB-75 CNS = tested on: SNB-75 CNS
NCI-H226 lung = tested on: NCI-H226 lung
SN12C renal = tested on: SN12C renal
UACC-62 melanoma = tested on: UACC-62 melanoma
COLO 205 colon = tested on: COLO 205 colon
KM12 colon = tested on: KM12 colon

Measured: TGI

O=c1oc2cccnc2n1CCCCN1CCN(c2ccccc2)CC1
not listed: SNB-75 CNS | NCI-H226 lung | SN12C renal | UACC-62 melanoma | COLO 205 colon | KM12 colon
> 100 µM: all other assays above

COc1cc2oc(=O)cc(C)c2c(OC)c1OC(C)=O
not listed: CAKI-1 renal | HOP-92 NSCLC | T-47D breast | RXF 393 renal | SF-539 CNS | HL-60(TB) leukemia | HCC-2998 colon | NCI-H460 lung | NCI-H522 lung
> 100 µM: all other assays above
